# “And” between values parts separate entries of the source, which are not always exact repeats. Equal entries are not always repeated.
# How the values were obtained:
# [1] = Retrospective online survey of individuals who had consumed psilocybin (Example 1; MEQ30, positive change); type: in vivo, human
# Method: A retrospective survey study was conducted based on crowdsourced online data gathered from individuals who had volitionally consumed psilocybin within the past year. Data were collected about participants' traits and demographic background, and then individuals were primed to recall their life experience before, at the time of ingestion, during, and after the psilocybin before completing scales to measure hypothesized traits and states. Previously validated scales were used where available (e.g., Tellegen Absorption Scale, MEQ30), and new scales were developed and tested for traits and states without existing measures (mental barriers, identity distress, state of surrender). A hierarchical regression model was used to test the relationships, and a path analysis was conducted to test the mediating capacity of ME.
# Participants were directed to the relevant webpage after reading informed consent text, completing screening and agreeing to participate in accordance with the stipulations of the Institutional Review Board. Scaled items in all but the long-term outcomes used 4-point Likert scales ranging from 1=Strongly Disagree to 4=Strongly Agree. Answers were required for each item, but each included an option “I prefer not to answer.”
# Participants' experiences were measured in two pages on the survey. The first activated their recollection of the experience through an open-ended question asking them to describe their experience and specific fixed response questions about their experience, including whether their eyes were primarily open or closed and the extent to which they were talking or exposed to media with words during their experience. On the second page, subjects responded to […] intermixed items on a 4-point Likert scale from the Mystical Experience Questionnaire (MEQ30) and 36 items from the Sacred Emotions Scale (SES), measuring the extent to which they felt “exuberance” and “dread” during the experience.
# The MEQ30 is a validated scale consisting of 30 items systematically validated and utilized in psychedelic studies. Some of the items from the MEQ30 were adapted for this study so that they were semantically consistent with the other scale (e.g., changed “I felt certain that I′d encountered ultimate reality” to “Certainty that I′d encountered ultimate reality”), and used a 4-point rather than a 7-point scale for reasons described above. The scale measures four dimensions of a mystical experience: (a) Mystical; 15 items with α=0.957, (b) Ineffability; 3 items with α=0.775, (c) Timelessness/Spacelessness; 6 items with α=0.844, and (d) Positive Affect; 6 items with α=0.851. The total scale produced Cronbach α=0.967. All of the reliability scores from this sample were similar to internal reliability scores produced in the norming sample (MacLean), which ranged from 0.831 to 0.936 for the four factors and 0.957 for the total scale.
# Participants were asked to describe their current state in two pages. […] The second page offered 46 statements including 15 intermixed items adapted from the work of Griffiths et al., (Psychopharmacology 2006, 187:268-283) measuring
# Data were collected on Amazon Mechanical Turk (MTurk), an online source in which individuals participate in survey studies for small cash compensation. […] Individuals who were registered as MTurk Workers from the U.S. indicated their interest by accepting the job or the “hit.” If individuals accepted the “hit,” they were directed to a screening page. If they passed those screening items, described below, they were given a link and password to the informed consent followed by the actual survey. • Screening
# The mean number of correct attention items in the final sample was 11.5 of 12 (SD=1.02), and the mean for the non-selected group was 4.69 (SD=3.36) attention items answered correctly. The final sample consisted of 143 valid responses with 81 males and 62 females (43%), and an average age of 31.1 (SD=9.64), with ages ranging from 18 to 62 years. […]
# [2] = Retrospective online survey of psilocybin users (Example 2; 5D-ASC Mystical-OBN / Adverse-DED, long-term change); type: in vivo, human; settings: for Negative Change, Mean / Positive Change, Mean: 5-point scale, 3=no change; for Flourishing, Mean: 6-point scale; for Importance, Mean: slider scale 1 to 100
# Source text: Participants were U.S. residents recruited through Amazon Mechanical Turk (MTurk; an online source in which individuals participate in survey studies for small cash compensation) who had ingested psilocybin within the past twelve months. The final screened sample consisted of 183 valid responses with 97 males (53.0%) and 85 females (46.4%) (1 missing), and an average age of 31.9 (SD=9.43) ranging from 18 to 70 years.
# […]. The six sections included background items, trait measures, prior state (i.e., life situation before psilocybin session), proximal state (i.e., emotions and motivation at ingestion), intrasession measures (i.e., the experience itself), and current state. Scaled items in all but the long-term outcomes used […] Likert scales ranging from 1=Strongly Disagree to 6=Strongly Agree. Open-ended questions designed to activate participants' relevant recollections were completed before responding to scale items related to prior state, proximal state, intrasession, and current status. Measures utilized in the regression models include the following;
# Measures of intrasession experience based on items from six subscales of the 5D-ASC (Dittrich et al., A Pharmacopsychiatry 1998, 31:80; Studerus et al., PLoS ONE 2010, 5). Mystical-OBN used a mean of items measuring Oceanic Boundlessness (Studerus et al., PLoS ONE 2012, 7): “experience of unity”, “spiritual experience”, “blissful state”, and “insightfulness”. Adverse-DED was a mean of items associated with Dread of Ego Dissolution (Studerus et al., PLoS ONE 2012, 7): “impaired control and cognition”, and “anxiety.” Scores for Mystical-OBN ranged from 1-5.92 (M=3.87, SD=1.16; α=0.93), and scores for Adverse-DED ranged from 1-5.47 (M=2.25, SD=0.98, α=0.91).
# Scale items measuring change based on pairs of adjectives adapted from Griffiths (2006). Individuals used a 5-point scale to indicate whether they had experienced a decrease, no change, or an increase in the characteristics. Positive change was calculated with the mean of nine items related to interpersonal traits, intrapersonal characteristics, and attitudes (Cronbach's α=0.929). Negative change was the mean of three items (α=0.883).
# Analyses of the impact of mystical experience on long-term outcomes were conducted in two ways: (1) independent t-test comparisons of each long-term outcome based on a complete or not complete mystical experience, and (2) a path analysis of the mediating role of mystical experience on positive change.
# Scores for importance were based on a slider scale ranging from 1 to 100. […] Flourishing was rated on a 6-point scale ranging from 1=strongly disagree to 6=strongly agree.
# [3] = Complete mystical experience, N=51
# [4] = None/partial mystical experience, N=129
compound,measurement,setting,value
CN(C)CCc1c[nH]c2cccc(OP(=O)(O)O)c12 [psilocybin],proportion meeting criteria for a complete ME,"[1]; MEQ30, >2.5 of 4 on all four subscales, whole sample",58%
same,"proportion with a full ME, experienced psychedelic users","[1]; MEQ30, >2.5 of 4 on all subscales, experienced users, n=70",63%
same,"proportion with a full ME, novice users","[1]; MEQ30, >2.5 of 4 on all subscales, novice users, n=13",42%
same,"proportion reporting complete MEs, reanalysis with cut point of 3","[1]; MEQ30, cut point 3 of 4 on all subscales",45%
same,"Positive Change, Mean","[1]; participants with Complete ME, N=83",3.8348
same,"Positive Change, Mean","[1]; participants with No/Incomplete ME, N=60",3.2274
same,mean positive change score,"[1]; whole sample (143 valid responses), higher scores = increases in positive emotions and decreases in negative emotions",3.58 (SD=0.65)
same,"Adverse-DED score, mean","[2]; 5D-ASC Dread of Ego Dissolution items, whole sample (183)",2.25
same,"Mystical-OBN score, mean","[2]; 5D-ASC Oceanic Boundlessness items, whole sample (183)",3.87
same,"Negative Change, Mean",[2]; [3],2.22
same,"Positive Change, Mean",[2]; [3],4.00
same,"Flourishing, Mean",[2]; [3],4.78
same,"Importance, Mean",[2]; [3],75.66
same,"Negative Change, Mean",[2]; [4],2.75 and 2.74
same,"Positive Change, Mean",[2]; [4],3.39
same,"Flourishing, Mean",[2]; [4],4.39
same,"Importance, Mean",[2]; [4],42.75

# From patent US20200147038A1, “ASSESSING AND TREATING PSYCHEDELIC-[…]” (Eleusis Benefit Corporation, PBC, priority 2017, published 2020)
